Laboratory results as given in the NIST ThermoML archive (doi:10.1007/s10765-006-0093-7).
± gives the expanded uncertainty stated by the source.

Conditions: Gas, Hot wire method

[Ar] [argon]
Conditions | thermal conductivity [W/m/K]
304.8 K, 1020 kPa | 0.01821 ± 0.00045
304.8 K, 1560 kPa | 0.01835 ± 0.00045
304.8 K, 2320 kPa | 0.01869 ± 0.00046
304.8 K, 2590 kPa | 0.01877 ± 0.00046
304.8 K, 4470 kPa | 0.01959 ± 0.00048
329 K, 1200 kPa | 0.0193 ± 0.00048
329 K, 1270 kPa | 0.01953 ± 0.00048
329 K, 1960 kPa | 0.01978 ± 0.00049
329 K, 2340 kPa | 0.01995 ± 0.00049
329 K, 3030 kPa | 0.02016 ± 0.0005
329 K, 3630 kPa | 0.0203 ± 0.0005
329 K, 5980 kPa | 0.02118 ± 0.00052
329 K, 7320 kPa | 0.02192 ± 0.00054
360.05 K, 1240 kPa | 0.02086 ± 0.00051
360.05 K, 1560 kPa | 0.02098 ± 0.00051
360.05 K, 1640 kPa | 0.02104 ± 0.00051
360.05 K, 2240 kPa | 0.02129 ± 0.00052
360.05 K, 3200 kPa | 0.02158 ± 0.00053
360.05 K, 4160 kPa | 0.02192 ± 0.00054
360.05 K, 8720 kPa | 0.0239 ± 0.00059
389.3 K, 1390 kPa | 0.02227 ± 0.00054
389.3 K, 2140 kPa | 0.02255 ± 0.00055
389.3 K, 2780 kPa | 0.02276 ± 0.00055
389.3 K, 3330 kPa | 0.02288 ± 0.00056
389.3 K, 3560 kPa | 0.02304 ± 0.00056
389.3 K, 4190 kPa | 0.02323 ± 0.00057
389.3 K, 5350 kPa | 0.02353 ± 0.00057
389.3 K, 6050 kPa | 0.02385 ± 0.00058
389.3 K, 6660 kPa | 0.02405 ± 0.00059
389.3 K, 7500 kPa | 0.0243 ± 0.00059
389.3 K, 8260 kPa | 0.02466 ± 0.0006
389.3 K, 8500 kPa | 0.02463 ± 0.0006
417.5 K, 1210 kPa | 0.02336 ± 0.00057
417.5 K, 1400 kPa | 0.02343 ± 0.00057
417.5 K, 2110 kPa | 0.02369 ± 0.00057
417.5 K, 2740 kPa | 0.02395 ± 0.00058
417.5 K, 3420 kPa | 0.02415 ± 0.00059
417.5 K, 4130 kPa | 0.02432 ± 0.00059
417.5 K, 4800 kPa | 0.02459 ± 0.0006
417.5 K, 5470 kPa | 0.02478 ± 0.0006
417.5 K, 6180 kPa | 0.02504 ± 0.00061
417.5 K, 6890 kPa | 0.02521 ± 0.00061
417.5 K, 7580 kPa | 0.0256 ± 0.00062
417.5 K, 8270 kPa | 0.02577 ± 0.00063
475.7 K, 1090 kPa | 0.02562 ± 0.00062
475.7 K, 1410 kPa | 0.02575 ± 0.00062
475.7 K, 2120 kPa | 0.02608 ± 0.00063
475.7 K, 2790 kPa | 0.02636 ± 0.00064
475.7 K, 3520 kPa | 0.02652 ± 0.00064
475.7 K, 4250 kPa | 0.02683 ± 0.00065
475.7 K, 5010 kPa | 0.02692 ± 0.00065
475.7 K, 6100 kPa | 0.02742 ± 0.00066
475.7 K, 7980 kPa | 0.02789 ± 0.00068
